Source: patent US20240197816A1, “COMPOSITION AND METHOD FOR PROLONG SURVIVAL OF TRANSPLANT AND RECIPIENT” (NovMetaPharma Co., Ltd., priority 2022, published 2024)

Experiments:
[1] = tested on: F344 donor kidney transplanted into LEWIS rats; assay: Survival of recipients in rat allogeneic kidney transplantation, minor MHC incompatible model; assay type: in vivo; conditions: CHP 40 mg/kg i.v. 1 hour before transplantation, then 40 mg/kg i.p. three times a week, n=4, untreated control 9 days (n=7)
Procedure: Donor surgery: After removing abdominal hair from donor rat under general anesthesia, the surgical area was disinfected and covered with surgical cloth. After a midline incision in the abdominal wall, one kidney was exposed, and 8 iu/kg of heparin was administered intravenously, followed by nephrectomy.
Table Surgery: Removed unnecessary tissue to anastomosis the artery, vein, and ureter of the extracted kidney to the blood vessel and ureter of the recipient, and covered and stored with gauze soaked in saline at 4° C.
Recipient surgery: After removal of abdominal hair of recipient rat under general anesthesia, the surgical area was disinfected and covered with surgical cloth. After a midline incision in the abdominal wall, the right kidney was exposed, the kidney was resected, and the donor renal artery and vein were anastomized end to side to the […]. The ureter of donor's kidney was sutured after incising the bladder. After confirming that the perfusion of the kidney was good (FIG. 1), the abdominal wall was closed, and the animal was placed on a blanket at 37° C. to recover.
As a minor MHC incompatible model, a kidney transplantation model F344 rats were used as donors and LEWIS rats were used as recipients. After resection of the recipients' right kidney on Day 0 (DO), the donors' kidney was transplanted into the recipients. […]

[2] = tested on: transplanted kidney (F344 to LEWIS rats); assay: Weekly ultrasound (color Doppler) of blood flow to the transplanted kidney; assay type: in vivo, rat; conditions: CHP treatment group, ultrasound once a week
Procedure: In the control group, CHP administration group (F344 to LEWIS rats), and inbred (LEWIS to LEWIS rats) kidney transplantation model, ultrasound was performed once a week to check the smooth flow of blood to the transplanted kidney.

[3] = tested on: transplanted kidney (F344 to LEWIS rats); assay: Graft kidney tissue findings (histology); assay type: in vivo, rat; conditions: TPL+CHP group; graft tissue on the 45th day
Source text: These phenomena are believed to be an effect of CHP that can suppress the acute rejection reaction that occurs within days after transplantation. In FIG. 5, graft kidney tissue findings on the 7th day of rejection in the left […] control group (Syngenic TPL) and on the 45th day in the CHP treated group (TPL+CHP).

[4] = tested on: transplanted kidney (F344 to LEWIS rats); assay: Evaluation of graft function (BUN, serum creatinine) after kidney transplantation; assay type: in vivo, rat
Source text: Individual data points represent the following groups: the syngeneic transplant recipients (Syngenic; n=3), transplant recipients without CHP administration (TPL; n=5), and the CHP-treated transplant recipients (TPL+CHP; n=5). […] This significant improvement in key renal function indicators highlights a promising advancement in post-transplant care, reducing the reliance on immunosuppressive therapies, and prolonging recipient survival and enhancing graft survival.

[5] = tested on: transplanted kidney; Nrf2; assay: PAS and Nrf2 immunohistochemistry of transplanted kidney five days after transplantation; assay type: in vivo, rat
Source text: All animals were sacrificed at five days from post-kidney transplantation. The administration of CHP to the transplant recipient group decreased tubular atrophy, tubulitis, endothelialitis, leukocyte infiltration, while increasing the level of antioxidative stress marker Nrf2 (Nuclear factor erythroid-2-related factor). These findings highlight the potential of CHP to exert protective (e.g., anti-inflammatory and antioxidative) effects in the transplantation rat model.

## O=C1N[C@@H](Cc2cnc[nH]2)C(=O)N2CCC[C@@H]12 [CHP, Cyclo histidine-proline]
[1]
  mean survival day (SMD): 326 days
[2]
  blood flow to the transplanted kidney (ultrasound): blood flow to the kidney was smooth
[3]
  borderline changes suggestive of acute cell-mediated rejection and microvascular inflammation: rapidly decreased
  focal glomerular necrosis and severe tubulointerstitial changes: decrease
[4]; CHP-treated animals, entire period of survival, weekly measurements over 46 weeks
  function of the grafted organ: fully function
[4]; TPL+CHP group at 3 weeks after transplantation, syngenic group 0.71 mg/dL
  serum creatinine: 0.82 mg/dL
[4]; five days post-transplantation, TPL+CHP n=5, TPL without CHP 7.23±0.39, p<0.0001
  serum creatinine levels: 1.32 ± 0.13 mg/dL
[4]; five days post-transplantation, TPL+CHP n=5, TPL without CHP 193.5±8.54, p<0.0001
  blood urea nitrogen (BUN): 41.98 ± 5.69 mg/dL
[5]; Nrf2 immunohistochemistry
  level of antioxidative stress marker Nrf2: increasing
[5]; PAS staining
  tubular atrophy, tubulitis, endothelialitis, leukocyte infiltration: decreased
